From ChEMBL document CHEMBL1201862, “PubChem BioAssay data set” (2004)
“And” between values parts separate entries of the source, which are not always exact repeats. Identical values can stand only once.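 Cultured in 96-well plates, cells were exposed to test compound for 48 hours across five concentrations. GI50 marks 50% less growth.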 The source made the active and inactive calls. Rule as the data show it: active = GI50 up to about 1.1 µM and inactive = higher.

Columns and labels:
Test in all cases: DTP human tumour cell line panel, 48 h
CAKI-1 = test system: CAKI-1
SF-268 = test system: SF-268
SNB-19 = test system: SNB-19
HOP-92 = test system: HOP-92
SK-MEL-28 = test system: SK-MEL-28
MOLT-4 = test system: MOLT-4
A498 = test system: A498
RXF 393 = test system: RXF 393
UACC-257 = test system: UACC-257
LOX IMVI = test system: LOX IMVI
SN12C = test system: SN12C
K562 = test system: K562
Malme-3M = test system: Malme-3M
UO-31 = test system: UO-31
SR = test system: SR
U-251 = test system: U-251
NCI-H23 = test system: NCI-H23
HCT-15 = test system: HCT-15
NCI/ADR-RES = test system: NCI/ADR-RES
BT-549 = test system: BT-549

Structure (SMILES)	GI50 (CAKI-1)	GI50 (SF-268)	GI50 (SNB-19)	GI50 (HOP-92)	GI50 (SK-MEL-28)	GI50 (MOLT-4)	GI50 (A498)	GI50 (RXF 393)	GI50 (UACC-257)	GI50 (LOX IMVI)	GI50 (SN12C)	GI50 (K562)	GI50 (Malme-3M)	GI50 (UO-31)	GI50 (SR)	GI50 (U-251)	GI50 (NCI-H23)	GI50 (HCT-15) [µM]	GI50 (NCI/ADR-RES)	GI50 (BT-549)
CCOC(=O)OC1(c2ccccc2)CCN(C)CC1	> 100 µM (inactive)	> 100 µM (inactive)	> 100 µM (inactive)	> 100 µM (inactive)	> 100 µM (inactive)	> 100 µM (inactive)	> 100 µM (inactive)	> 100 µM (inactive)	> 100 µM (inactive)	> 100 µM (inactive)	> 100 µM (inactive)	> 100 µM (inactive)	> 100 µM (inactive)	> 100 µM (inactive)	> 100 µM (inactive)	> 100 µM (inactive)	> 100 µM (inactive)	> 100	> 100 µM (inactive)	
CC1C(c2ccccc2O)c2cc3c(cc2OC1N1CCCC1)OCO3 (centres undefined)	34.7 µM (inactive)	33.3 µM (inactive)	49.4 µM (inactive)	19.8 µM (inactive)	20.4 µM (inactive)	19.6 µM (inactive)	23.2 µM (inactive)	13.7 µM (inactive)	25.1 µM (inactive)	18.4 µM (inactive)	19.4 µM (inactive)	20 µM (inactive)	25.3 µM (inactive)	31.6 µM (inactive)	18.8 µM (inactive)	31.7 µM (inactive)	39 µM (inactive)	19.8		32.3 µM (inactive)
[N-]=[N+]=CC(=O)OCC1NC(=O)C(COC(=O)C=[N+]=[N-])NC1=O (centres undefined)	> 100 µM (inactive)	> 100 µM (inactive)	> 100 µM (inactive) and 72.1 µM (inactive)	> 100 µM (inactive)	> 100 µM (inactive)	> 100 µM (inactive)	> 100 µM (inactive)		> 100 µM (inactive)	> 100 µM (inactive)	> 100 µM (inactive)	> 100 µM (inactive)	> 100 µM (inactive)	> 100 µM (inactive)	> 100 µM (inactive)	> 100 µM (inactive)	> 100 µM (inactive)	> 100	> 100 µM (inactive)	
CCSc1cc(=O)n(C)c(=O)n1C	> 100 µM (inactive)	> 100 µM (inactive)	> 100 µM (inactive)	> 100 µM (inactive)	> 100 µM (inactive)	> 100 µM (inactive)	> 100 µM (inactive)	> 100 µM (inactive)	> 100 µM (inactive)	> 100 µM (inactive)	> 100 µM (inactive)		> 100 µM (inactive)	> 100 µM (inactive)		> 100 µM (inactive)	> 100 µM (inactive)	> 100	> 100 µM (inactive)	> 100 µM (inactive)
N#C[BH2-][n+]1cn(C2CC(O)C(COP(=O)(O)OC3CC(n4ccc(N)nc4=O)OC3CO)O2)c2nc(N)[nH]c(=O)c21 (centres undefined)	> 100 µM (inactive)	> 100 µM (inactive)	> 100 µM (inactive)	> 100 µM (inactive)		> 100 µM (inactive)	> 100 µM (inactive)	> 100 µM (inactive)	> 100 µM (inactive)		> 100 µM (inactive)	10 µM (inactive)	> 100 µM (inactive)	> 100 µM (inactive)	> 100 µM (inactive)	> 100 µM (inactive)	> 100 µM (inactive)	> 100	> 100 µM (inactive)	
Nc1ccccc1/C=C\c1ccccc1		> 100 µM (inactive)	> 100 µM (inactive)	> 100 µM (inactive)	> 100 µM (inactive)	> 100 µM (inactive)		> 100 µM (inactive)	> 100 µM (inactive)		> 100 µM (inactive)	> 100 µM (inactive)	> 100 µM (inactive)	> 100 µM (inactive)		> 100 µM (inactive)	> 100 µM (inactive)	> 100	> 100 µM (inactive)	> 100 µM (inactive)
CNC(=O)CN(C)C(=O)CCC(=O)N(C)C	> 100 µM (inactive)	> 100 µM (inactive)	> 100 µM (inactive)	> 100 µM (inactive)	> 100 µM (inactive)	> 100 µM (inactive)	> 100 µM (inactive)		> 100 µM (inactive)	> 100 µM (inactive)	> 100 µM (inactive)	> 100 µM (inactive)	> 100 µM (inactive)	> 100 µM (inactive)		> 100 µM (inactive)	> 100 µM (inactive)	> 100	> 100 µM (inactive)	> 100 µM (inactive)
Clc1ccc(OCc2nn3c(CCc4nnc5sc(COc6ccc(Cl)cc6)nn45)nnc3s2)cc1	3.35 µM (inactive)	5.61 µM (inactive)			33.9 µM (inactive)	6.62 µM (inactive)	11.9 µM (inactive)	23.8 µM (inactive)	22.9 µM (inactive)	37.2 µM (inactive)		9.4 µM (inactive)		1.53 µM (inactive)		20.7 µM (inactive)	15.3 µM (inactive)	18.2	8.15 µM (inactive)	
